In assay [1] the target is p38 MAPKα (MAPK14) (Homo sapiens (Human), UniProt Q16539). Briefly: p38 MAPKα enzyme inhibition (FRET, Z-LYTE; Method 2). It is filed as biochemical. As to the method: (§1) The enzyme inhibitory activities of compounds disclosed herein are determined by FRET using synthetic peptides labelled with both donor and acceptor fluorophores (Z-LYTE, Invitrogen Ltd., Paisley, UK).
The inhibitory activities of test compounds against the p38 MAPKα isoform (MAPK14: Invitrogen) are evaluated indirectly by determining the level of activation\phosphorylation of the down-stream molecule, MAPKAP-K2. The p38 MAPKα protein (80 ng/mL, 2.5 μL) is mixed with the test compound (2.5 μL of either 4 μg/mL, 0.4 μg/mL, 0.04 μg/mL or 0.004 μg/mL) for 2 hr at RT. […] The mixture is incubated for 1 hr at RT. Development reagent (protease, 5 μL) is added for 1 hr prior to detection in a fluorescence microplate reader (Vanoskan® Flash, ThermoFisher Scientific).
(§2) In all cases, the site-specific protease cleaves non-phosphorylated peptide only and eliminates the FRET signal. Phosphorylation levels of each reaction are calculated using the ratio of coumarin emission (donor) over fluorescein emission (acceptor), for which high ratios indicate high phosphorylation and low ratios indicate low phosphorylation levels.

Assay [2] concerns the target Syk (Homo sapiens (Human), UniProt P43405). Briefly: Syk enzyme inhibition (FRET, Z-LYTE). It is filed as biochemical. As to the method:
as §1
(§3) The relevant enzyme (3000 ng/mL or 2000 ng/mL respectively, 2.5 μL) is incubated with the test compound (either 1 μg/mL, 0.1 μg/mL, 0.01 μg/mL, or 0.001 μg/mL, 2.5 μL each) for 2 hr at RT. The FRET peptides (8 μM, 2.5 μL), and appropriate ATP solutions (2.5 μL, 800 μM for c-Src, and 60 μM ATP for Syk) are then added to the enzymes/compound mixtures and the mixture incubated for 1 hr. Development reagent (protease, 5 μL) is added for 1 hr prior to detection in a fluorescence microplate reader (Varioskan® Flash, ThermoFisher Scientific).
as §2

Assay [3] concerns the target c-Src (Homo sapiens (Human), UniProt P12931). Briefly: c-Src enzyme inhibition (FRET, Z-LYTE). It is filed as biochemical. As to the method: as §1, §3, §2
The target in assay [4] is GSK 3α (Homo sapiens (Human), UniProt P49840). Kind of assay: GSK 3α enzyme inhibition (FRET, Z-LYTE; Method 2). It is filed as biochemical. As to conditions: read-out: IC50 Values for Enzyme Inhibition GSK3α. The essentials: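 Phosphorylation was taken from the donor (coumarin) to acceptor (fluorescein) emission ratio after 1 h protease development, which cleaves only unphosphorylated peptide. Before that, peptide (8 μM stock) plus ATP (40 μM stock) reacted 1 h. This followed a 105 min RT preincubation of GSK3-α with compound stocks of 10–0.01 μg/mL.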

In assay [5] the test system is β-catenin in d-U937 cells. Briefly: Accumulation of β catenin in d-U937 cells (assay m). It is filed as cell-based, human. As to the method: U937 cells, a human monocytic cell line, are differentiated into macrophage-type cells by incubation with PMA (100 ng/mL) for between 48 to 72 hr. The cells are then incubated with either final concentrations of test compound or vehicle for 18 hr. The induction of β-catenin by the test compounds is stopped by replacing the media with 4% formaldehyde solution. Endogenous […] is neutralised by incubating with quenching buffer (100 μL, 0.1% sodium azide, 1% H2O2 in PBS with 0.05% Tween-20) for 20 min. The cells are washed with washing buffer (200 μL; PBS containing 0.05% Tween-20) and incubated with blocking solution (200 μL; 5% milk in PBS) for 1 hr, re-washed with washing buffer (200 μL) and then incubated overnight with anti-β-catenin antibody solution (50 μL) in 1% BSA/PBS (BD, Oxford, UK).
After washing with washing buffer (3×200 μL; PBS containing 0.05% Tween-20), cells are incubated with a HRP-conjugated secondary antibody solution (100 μL) in 1% BSA/PBS (Dako, Cambridge, UK) and the resultant signal is determined colourimetrically (OD: 450 nm with a reference wavelength of 655 nm) using TMB substrate (50 μL; R&D Systems, Abingdon, UK). This reaction is stopped by addition of 1N H2SO4 solution (50 μL). Cells are then washed with washing buffer and 2% crystal violet solution (50 μL) is applied for 30 min. After washing with washing buffer (3×200 μL), 1% SDS (100 μL) is added to each well and the plates are shaken lightly for 1 hr prior to measuring the absorbance at 595 nm (Varioskan® Flash, Thermo-Fisher Scientific).
The measured OD450-655 readings are corrected for cell number by dividing the OD450-655 by the OD595 readings.

Sequence of p38 MAPKα (MAPK14) (Q16539 whole entry, canonical isoform): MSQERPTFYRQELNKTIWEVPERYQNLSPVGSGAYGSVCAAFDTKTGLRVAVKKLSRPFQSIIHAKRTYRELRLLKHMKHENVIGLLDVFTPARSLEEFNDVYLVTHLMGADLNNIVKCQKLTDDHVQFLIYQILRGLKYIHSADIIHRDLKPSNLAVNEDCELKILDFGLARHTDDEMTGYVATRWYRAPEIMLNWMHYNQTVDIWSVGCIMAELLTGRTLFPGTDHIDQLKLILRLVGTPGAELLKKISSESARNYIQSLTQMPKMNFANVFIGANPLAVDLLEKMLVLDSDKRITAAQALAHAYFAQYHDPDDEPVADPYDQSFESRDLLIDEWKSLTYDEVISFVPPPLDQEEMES
Sequence of c-Src (P12931 whole entry, looked up): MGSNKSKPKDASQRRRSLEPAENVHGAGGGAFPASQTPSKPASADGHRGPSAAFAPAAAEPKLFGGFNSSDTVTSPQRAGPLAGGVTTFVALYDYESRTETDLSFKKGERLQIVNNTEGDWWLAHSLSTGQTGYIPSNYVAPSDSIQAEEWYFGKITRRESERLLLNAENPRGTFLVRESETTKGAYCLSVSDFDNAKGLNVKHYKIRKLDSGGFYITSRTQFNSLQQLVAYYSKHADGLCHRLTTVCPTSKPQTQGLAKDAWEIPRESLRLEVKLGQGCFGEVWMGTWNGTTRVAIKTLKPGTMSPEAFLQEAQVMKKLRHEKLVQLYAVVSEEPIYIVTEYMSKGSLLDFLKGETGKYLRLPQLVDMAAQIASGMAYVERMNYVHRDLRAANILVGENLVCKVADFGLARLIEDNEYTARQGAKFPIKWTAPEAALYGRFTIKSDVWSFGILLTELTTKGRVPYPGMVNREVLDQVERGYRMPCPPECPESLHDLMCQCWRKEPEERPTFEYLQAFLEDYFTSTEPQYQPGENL
Sequence of GSK 3α (P49840 whole entry): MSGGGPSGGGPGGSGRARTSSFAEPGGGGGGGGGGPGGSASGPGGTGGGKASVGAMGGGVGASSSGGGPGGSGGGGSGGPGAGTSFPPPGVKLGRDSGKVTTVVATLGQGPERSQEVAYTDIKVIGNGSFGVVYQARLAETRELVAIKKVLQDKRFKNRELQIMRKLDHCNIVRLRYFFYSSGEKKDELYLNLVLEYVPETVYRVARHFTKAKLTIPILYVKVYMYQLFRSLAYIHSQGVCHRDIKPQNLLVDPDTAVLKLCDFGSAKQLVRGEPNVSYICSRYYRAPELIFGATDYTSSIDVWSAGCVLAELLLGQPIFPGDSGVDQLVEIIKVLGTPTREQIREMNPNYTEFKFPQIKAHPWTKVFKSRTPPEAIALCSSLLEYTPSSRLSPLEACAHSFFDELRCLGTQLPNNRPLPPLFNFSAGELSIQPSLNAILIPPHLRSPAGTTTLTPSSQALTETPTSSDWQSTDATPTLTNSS

`COCCOCCOCCOc1cc(Nc2nccc(Oc3ccc(NC(=O)Nc4cc(C(C)(C)C)cc(NS(C)(=O)=O)c4-c4ccccc4)c4ccccc34)n2)cc(OC)c1` [83(a), N-(4-(tert-butyl)-6-(3-(4-((2-((3-methoxy-5-(2-(2-(2-methoxyethoxy)ethoxy)ethoxy)phenyl)-amino)pyrimidin-4-yl)oxy)naphthalen-1-yl)ureido)-[1,1′-biphenyl]-2-yl)methane-sulfonamide]: the IC50 turned out to be 142 nM in assay [1], 1160 nM in assay [2], 22 nM in assay [3] and 8.33 µM in assay [4].
As to `COCCOCCOCCOc1cc(Nc2nccc(Oc3ccc(NC(=O)Nc4cc(C(C)(C)C)cc(NS(=O)(=O)N5CCOCC5)c4OC)c4ccccc34)n2)cc(OC)c1` [83(b), N-(5-(tert-butyl)-2-methoxy-3-(3-(4-((2-((3-methoxy-5-(2-(2-(2-methoxyethoxy)ethoxy)-ethoxy)phenyl)amino)pyrimidin-4-yl)oxy)naphthalen-1-yl)ureido)phenyl)morpholine-4-sulfonamide], the 50% inhibitory concentration (IC50) in assay [1] was 246 nM; in assay [2] it was 802 nM; in assay [3], 48 nM; in assay [4] it was 9.15 µM. For the same compound, the “% β-catenin induction” value is −6% in assay [5] (test compound 1 μg/mL), −9% in assay [5] (test compound 5 μg/mL) and −6% in assay [5] (test compound 10 μg/mL).
Take `COc1cc(Nc2cc(Oc3ccc(NC(=O)Nc4cc(C(C)(C)C)cc(NS(C)(=O)=O)c4OC)c4ccccc34)ccn2)cc(OCCOCCOCCO)c1` [84(e), 1-[5-tert-Butyl-3-(methanesulfonamido)-2-methoxy-phenyl]-3-[4-[[2-[3-[2-[2-(2-hydroxyethoxy)ethoxy]ethoxy]-5-methoxy-anilino]-4-pyridyl]oxy]-1-naphthyl]urea]: the half-maximal inhibitory concentration (IC50) in assay [1] was determined as 77 nM; in assay [2], 125 nM; in assay [3], 36 nM; in assay [4], 4.47 µM. For the same compound, the figures for the “% β-catenin induction” value in assay [5] (test compound 1 μg/mL), in assay [5] (test compound 5 μg/mL) and in assay [5] (test compound 10 μg/mL) were −1%, 5% and 7%, respectively.
In the case of `COc1cc(CO)cc(Nc2cc(Oc3ccc(NC(=O)Nc4cc(C(C)(C)C)cc(C(N)=O)c4OC)c4ccccc34)ccn2)c1` [84(g), 5-tert-Butyl-3-[[4-[[2-[3-(hydroxymethyl)-5-methoxyanilino]-4-pyridyl]oxy]-1-naphthyl]carbamoylamino]-2-methoxybenzamide], the concentration for half-maximal inhibition (IC50) in assay [1] worked out at 86 nM; in assay [2], 137 nM; in assay [3], 28 nM; in assay [4], 2.27 µM. The “% β-catenin induction” value in assay [5] (test compound 1 μg/mL) stood at 1%; in assay [5] (test compound 5 μg/mL), 8%; in assay [5] (test compound 10 μg/mL), 7%.
Consider `CNC(=O)c1cc(C(C)(C)C)cc(NC(=O)Nc2ccc(Oc3ccnc(Nc4cc(CO)cc(OC)c4)c3)c3ccccc23)c1OC` [84(h), 5-tert-Butyl-3-[[4-[[2-[3-(hydroxymethyl)-5-methoxyanilino]-4-pyridyl]oxy]-1-naphthyl]carbamoylamino]-2-methoxy-N-methyl-benzamide], for which the IC50 is 79 nM in assay [1], 130 nM in assay [2], 21 nM in assay [3] and 1.65 µM in assay [4]. Also, the figures for the “% β-catenin induction” value in assay [5] (test compound 1 μg/mL), in assay [5] (test compound 5 μg/mL) and in assay [5] (test compound 10 μg/mL) were −1%, 11% and 10%, respectively.
On to `C#Cc1cc(Nc2nccc(Oc3ccc(NC(=O)Nc4cc(C(C)(C)C)cc(NS(C)(=O)=O)c4OC)c4ccccc34)n2)cc(C(=O)NCCN2CCOCC2)c1` [Example 1, 3-((4-((4-(3-(5-(tert-Butv)-2-methoxy-3-(methysulfonamido)phenyl)ureido)naphthalen-1-yl)oxy)pyrimidin-2-yl)amino)-5-ethynyl-N-(2-morpholinoethyl)benzamide], for which the IC50 in assay [1] is 118 nM; in assay [2] it was 51 nM; in assay [3], 12 nM; in assay [4], 0.657 µM. Further, the “% β-catenin induction” value in assay [5] (test compound 1 μg/mL) was found to be 18%; in assay [5] (test compound 5 μg/mL), 17%.
As to `COc1cc(Nc2nccc(Oc3ccc(NC(=O)Nc4cc(C(C)(C)C)cc(NS(C)(=O)=O)c4OC)c4ccccc34)n2)cc(C(=O)NCCN2CCOCC2)c1` [Example 6, 3-((4-((4-(3-(5(tert-Butyl)-2-methoxy-3-(methylsulfonamido)phenyl)ureido)naphthaen-1-yl)oxy)pyrimidin-2-yl)amino)-5-methox-N-(2-morpholinoethyl)benzamide], the concentration for half-maximal inhibition (IC50) in assay [1] is 34 nM; in assay [2], 421 nM; in assay [3] it was 11 nM; in assay [4] it was 0.541 µM. The “% β-catenin induction” value worked out at 7% in assay [5] (test compound 1 μg/mL), 20% in assay [5] (test compound 5 μg/mL) and 11% in assay [5] (test compound 10 μg/mL).
Take `COCCOCCOCCOc1cc(Nc2nccc(Oc3ccc(NC(=O)Nc4cc(C(C)(C)C)cc(C(=O)NCCO)c4OC)c4ccccc34)n2)cc(OC)c1` [Example 35, 5-(tert-Butyl)-N-(2-hydroxyethyl)-2-methoxy-3-(3-(4-((2-((3-methoxy-5-(2-(2-(2-methoxy-ethoxy)ethoxy)ethoxy)phenyl)amino)pyrimidin-4-yl)oxy)naphthalen-1-yl)ureido)-benzamide]: the half-maximal inhibitory concentration (IC50) was 120 nM in assay [1], 48 nM in assay [2], 13 nM in assay [3] and 0.597 µM in assay [4].
For the compound `C#Cc1cc(Nc2cc(Oc3ccc(NC(=O)Nc4cc(C(N)=O)cc(C(C)(C)C)c4)c4ccccc34)ccn2)cc(C(=O)NCCOCCOCCOC)c1` [Example 62, 3-((4-((4-(3-(3-(tert-Butyl)-5-carbamoylphenyl)ureido)naphthalen-1-yl)oxy)vridin-2-yl)amino)-5-ethynyl-N-(2-(2-(2-methoxyethoxy)ethoxy)ethyl)benzamide], the half-inhibitory concentration (IC50) in assay [1] was found to be 32 nM; in assay [2] it was 1320 nM; in assay [3] it was 44 nM; in assay [4], 10.6 µM.
`COCCOCCOCCOc1cc(Nc2nccc(Oc3ccc(NC(=O)Nc4cc(C(C)(C)C)cc(-c5cnn[nH]5)c4OC)c4ccccc34)n2)cc(OC)c1` [Example 70, 1-(5-(tert-Butyl)-2-methoxy-3-(1H-1,2,3-triazol-5-yl)phenyl)-3-(4-((2-((3-methoxy-5-(2-(2-(2-methoxyethoxy)ethoxy)ethoxy)phenyl)amino)pyrimidin-4-yl)oxy)naphthalen-1-yl)urea]: the IC50 in assay [1] is 332 nM; in assay [2] it was 86 nM; in assay [3], 67 nM; in assay [4], 3.97 µM.
For the compound `COc1cc(Nc2cc(Oc3ccc(NC(=O)Nc4cc(C(C)(C)C)cc(NS(C)(=O)=O)c4OC)c4ccccc34)ccn2)cc(C(=O)NCC(=O)N2CCOCC2)c1` [Example 85(a), 3-[[4-[[4-[[5-tert-Butyl-3-(methanesulfonamido)-2-methoxyphenyl]-carbamoylamino]-1-naphthyl]oxy]-2-pyridyl]amino]-5-methoxy-N-(2-morvholino-2-oxo-ethyl)benzamide], the IC50 turned out to be 38 nM in assay [1], 656 nM in assay [2], 29 nM in assay [3] and 6.74 µM in assay [4].

The values are drawn from patent US9481648B2, “Kinase inhibitors” (Respivert Limited, priority 2013, dated 2016).
